Measured values: publication PMC4368451 (Cancer chemotherapy and pharmacology, 2015)

How the values were obtained:
[1] = system: A549 non-small cell lung carcinoma xenograft; assay: A549 xenograft model; type: in vivo, Female athymic NCr-nu/nu nude mice; conditions: for TGI % (tumor growth inhibition): 5 mg/kg i.p. every other day for 13 days, day 23, relative to control; for tumor growth: 5 mg/kg i.p. every other day for thirteen days
A549 tumor = type: in vivo, Female athymic NCr-nu/nu nude mice; conditions: 5 mg/kg i.p. on four consecutive days
[2] = Prodrug processing in plasma or whole blood; type: in vitro ADME
[3] = system: SW620 (colorectal adenocarcinoma) cells; assay: Cell cycle distribution; type: cell-based; conditions: SW620, 24 hours

Row | Compound | TGI % (tumor growth inhibition) [1] [%] | TGI % (tumor growth inhibition) ([1]; listed as Larg.) [%] | tumor growth [1] | acetylated H3 and H4 in tumor lysates (western blot) relative to control (A549 tumor) | prodrug level after room temperature incubation in plasma or whole blood [2] | cell cycle dose dependence [3] | concentration for G2 arrest [3] [nM]
1 | CCCCCCCC(=O)SCC/C=C/[C@@H]1CC(=O)NCc2nc(cs2)C2=N[C@@](C)(CS2)C(=O)N[C@@H](C(C)C)C(=O)O1 [Largazole] | 32 | 32 | tumor growth rate was slower | increased acetylation relative to control | < LLOQ after ten minutes | clear switch from G1 to G2 arrest with increasing concentration | > 50
2 | Largazole thiol |  |  | tumor growth rate was slower |  |  |  | 
